Laboratory results from DBAASP.
Converted amounts (≈) assume the structure as drawn. Blank lines part the entries; values can stand above or below the molecule they belong to.

Columns and labels:
Experiment in all cases: ≥ marks a high value that may be exact or a test limit, other limits are often not marked, values filed in µg/mL are converted to µM
[1] = tested on: Escherichia coli ATCC 25726
[2] = tested on: Staphylococcus aureus ATCC 25923
[3] = tested on: Escherichia coli ATCC 8739
[4] = tested on: Bacillus subtilis CMCC 63501
[5] = tested on: Enterococcus faecalis ATCC 29212
[6] = tested on: Escherichia coli ATCC 25922
[7] = tested on: Pseudomonas aeruginosa ATCC 27853
[8] = tested on: Salmonella enterica subsp. enterica serovar Pullorum C79-13
[9] = tested on: Salmonella enterica subsp. enterica serovar Typhimurium C77-31
[10] = tested on: Staphylococcus aureus ATCC 29213
[11] = tested on: Staphylococcus epidermidis ATCC 12228
[12] = tested on: Bacillus subtilis ATCC 6633
[13] = tested on: Staphylococcus aureus ATCC 43300
[14] = tested on: Staphylococcus aureus ATCC 6538
Escherichia coli JW0013 = tested on: Escherichia coli JW0013

SMILES: CC[C@H](C)[C@H](NC(=O)[C@H](CCCCN)NC(=O)[C@H](C)NC(=O)[C@H](C)NC(=O)[C@H](CC(C)C)NC(=O)CNC(=O)[C@H](C)NC(=O)[C@H](CC(C)C)NC(=O)[C@@H](NC(=O)[C@@H]1CCCN1C(=O)[C@H](CC(C)C)NC(=O)[C@@H](N)Cc1ccccc1)[C@@H](C)CC)C(=O)N[C@H](C(=O)N1CCC[C@H]1C(=O)N[C@@H](CCCCN)C(=O)N[C@@H](CC(C)C)C(=O)N[C@@H](Cc1ccccc1)C(=O)N[C@H]1CSSC[C@@H](C(=O)O)NC(=O)[C@H](CCCCN)NC(=O)[C@H](CCCCN)NC(=O)[C@H]([C@@H](C)O)NC(=O)[C@H](C)NC(=O)[C@H](CC(C)C)NC1=O)C(C)C [FLPILAGLAAKIVPKLFCLATKKC]
MIC [1]: ≥ 32 µM
MIC [2]: 2 µM (≈ 5.11 µg/mL)

SMILES: CC[C@H](C)[C@H](NC(=O)[C@H](CCCCN)NC(=O)[C@H](CO)NC(=O)[C@H](C)NC(=O)[C@H](Cc1c[nH]c2ccccc12)NC(=O)CN)C(=O)NCC(=O)N[C@@H](CCC(N)=O)C(=O)N[C@H](C(=O)N[C@@H](CC(C)C)C(=O)NCC(=O)N[C@@H](CCCCN)C(=O)N[C@@H](CCSC)C(=O)N[C@@H](C)C(=O)N[C@@H](CCCCN)C(=O)N[C@H](C(=O)NCC(=O)N[C@@H](CC(C)C)C(=O)N[C@@H](CCC(N)=O)C(=O)N[C@@H](CCC(=O)O)C(=O)N[C@H](C(=O)N[C@H](C(=O)N[C@@H](CCC(N)=O)C(=O)N1CCC[C@H]1C(=O)N[C@@H](CCCCN)C(=O)O)[C@@H](C)CC)[C@@H](C)CC)C(C)C)[C@@H](C)O [GWASKIGQTLGKMAKVGLQEIIQPK]
MIC [1]: ≥ 50 µM
MIC [2]: > 50 µM

SMILES: CC[C@H](C)[C@H](NC(=O)[C@H](C)NC(=O)[C@H](CC(N)=O)NC(=O)[C@@H](N)CCSC)C(=O)N[C@@H](CC(N)=O)C(=O)N[C@@H](Cc1ccccc1)C(=O)N[C@H](C(=O)N[C@@H](CS)C(=O)N[C@H](C(=O)N[C@H](C(=O)N[C@@H](Cc1cnc[nH]1)C(=O)N[C@@H](CCCCN)C(=O)N[C@@H](CCCCN)C(=O)N[C@H](C(=O)N[C@@H](C)C(=O)N[C@H](C(=O)N[C@@H](CO)C(=O)N[C@H](C(=O)O)C(C)C)[C@@H](C)CC)C(C)C)C(C)C)[C@@H](C)O)[C@@H](C)O [MNAINFTCTVHKKVAISV]
MIC [3]: ≥ 130 µM
MIC [2]: > 130 µM

SMILES: NC(=O)[C@@H]1CCCN1C(=O)[C@H](CCCN=C(N)N)NC(=O)[C@@H]1CCCN1C(=O)[C@H](CCCN=C(N)N)NC(=O)[C@H](CS)NC(=O)[C@H](Cc1ccccc1)NC(=O)[C@H](CCCN=C(N)N)NC(=O)[C@H](CCCN=C(N)N)NC(=O)[C@H](CCCN=C(N)N)NC(=O)[C@H](CS)NC(=O)[C@H](CCCN=C(N)N)NC(=O)[C@@H]1CCCN1C(=O)[C@H](CCCN=C(N)N)NC(=O)[C@@H]1CCCN1 [PRPRCRRRFCRPRP]
MIC [4]: 8 µM (≈ 14.8 µg/mL)
MIC [5]: > 128 µM
MIC [6]: 16 µM (≈ 29.6 µg/mL)
MIC [7]: > 128 µM
MIC [8]: ≥ 128 µM
MIC [9]: ≥ 128 µM
MIC [10]: > 128 µM
MIC [11]: > 128 µM

SMILES: CC[C@H](C)[C@@H]1NC(=O)[C@H](CCCCN)NC(=O)[C@@H](NC(=O)[C@H](CO)NC(=O)[C@H](CC(C)C)NC(=O)[C@H](C)NC(=O)[C@H](CC(N)=O)NC(=O)[C@H](CC(C)C)NC(=O)[C@@H](NC(=O)[C@H](CO)NC(=O)[C@@H](NC(=O)CNC(=O)[C@H](C)NC(=O)[C@H](CO)NC(=O)[C@H](CCCCN)NC(=O)[C@H](C)NC(=O)[C@H](C)NC(=O)[C@H](CC(N)=O)NC(=O)[C@@H](NC(=O)[C@H](C)NC(=O)[C@H](CC(C)C)NC(=O)[C@H](CC(N)=O)NC(=O)[C@H](CCCCN)NC(=O)[C@H](Cc2ccccc2)NC(=O)[C@@H](NC(=O)[C@H](CC(=O)O)NC(=O)[C@H](CC(C)C)NC(=O)[C@H](CC(C)C)NC(=O)[C@@H](N)CO)[C@@H](C)O)C(C)C)C(C)C)C(C)C)CSSC[C@@H](C(=O)O)NC(=O)[C@H]([C@@H](C)O)NC(=O)[C@H](CCCN=C(N)N)NC(=O)[C@H](CO)NC1=O [SLLDTFKNLAVNAAKSAGVSVLNALSCKISRTC]
MIC [12]: 12.5 µM (≈ 42.4 µg/mL)
MIC [3]: ≥ 50 µM
MIC [13]: 100 µM (≈ 339 µg/mL)
MIC [14]: 12.5 µM (≈ 42.4 µg/mL)

SMILES: CC[C@H](C)[C@H](NC(=O)[C@H](CC(C)C)NC(=O)[C@H](CC(C)C)NC(=O)[C@H](CC(=O)O)NC(=O)[C@H](CCCCN)NC(=O)[C@@H](NC(=O)[C@@H](NC(=O)CNC(=O)[C@H](CC(C)C)NC(=O)[C@@H](NC(=O)[C@@H](N)CO)C(C)C)[C@@H](C)O)C(C)C)C(=O)NCC(=O)N[C@@H](C)C(=O)NCC(=O)N[C@@H](CCCCN)C(=O)N[C@@H](CO)C(=O)N[C@@H](C)C(=O)N[C@@H](C)C(=O)N[C@@H](CCC(N)=O)C(=O)N[C@@H](CO)C(=O)N[C@H](C(=O)N[C@@H](CC(C)C)C(=O)N[C@H](C(=O)N[C@H](C(=O)N[C@@H](CC(C)C)C(=O)N[C@@H](CO)C(=O)N[C@H]1CSSC[C@@H](C(=O)O)NC(=O)[C@H](CO)NC(=O)[C@H](CC(N)=O)NC(=O)[C@H](CO)NC(=O)[C@H](CC(C)C)NC(=O)[C@H](CCCCN)NC1=O)[C@@H](C)O)[C@@H](C)O)C(C)C [SVLGTVKDLLIGAGKSAAQSVLTTLSCKLSNSC]
MIC [3]: ≥ 50 µM
MIC [14]: 25 µM (≈ 81.6 µg/mL)

Now from value to molecule:

MIC (Escherichia coli JW0013): 0.489 µM (≈ 1.2 µg/mL)
SMILES: CC[C@H](C)[C@H](NC(=O)[C@H](CCCN=C(N)N)NC(=O)[C@H](CCCN=C(N)N)NC(=O)[C@@H]1CCCN1C(=O)[C@@H]1CCCN1C(=O)[C@H](CCCN=C(N)N)NC(=O)[C@H](CCCCN)NC(=O)[C@H](CCCN=C(N)N)NC(=O)[C@@H]1CCCN1C(=O)[C@H](CC(C)C)NC(=O)[C@H](Cc1ccc(O)cc1)NC(=O)[C@@H]1CCCN1C(=O)[C@H](CCCCN)NC(=O)[C@H](CCCCN)NC(=O)[C@H](CC(=O)O)NC(=O)[C@@H](N)C(C)C)C(=O)N[C@@H](Cc1ccc(O)cc1)C(=O)N[C@@H](CC(N)=O)C(=O)N[C@@H](CCCN=C(N)N)C(N)=O [VDKKPYLPRKRPPRRIYNR]

MIC (Escherichia coli JW0013): 1.35 µM (≈ 3.3 µg/mL)
SMILES: CC[C@H](C)[C@H](NC(=O)[C@H](CCCN=C(N)N)NC(=O)[C@H](CCCN=C(N)N)NC(=O)[C@@H]1CCCN1C(=O)[C@@H]1CCCN1C(=O)[C@H](CCCN=C(N)N)NC(=O)[C@@H]1CCCN1C(=O)[C@H](CCCN=C(N)N)NC(=O)[C@@H]1CCCN1C(=O)[C@H](CC(C)C)NC(=O)[C@H](Cc1ccc(O)cc1)NC(=O)[C@H](CCCN=C(N)N)NC(=O)[C@@H]1CCCN1C(=O)[C@H](CCCCN)NC(=O)[C@H](CC(=O)O)NC(=O)[C@@H](N)C(C)C)C(=O)N[C@@H](Cc1ccc(O)cc1)C(=O)N[C@@H](CC(N)=O)C(=O)N[C@@H](CCCN=C(N)N)C(N)=O [VDKPRYLPRPRPPRRIYNR]

MIC (Escherichia coli JW0013): 0.635 µM (≈ 1.6 µg/mL)
SMILES: CC[C@H](C)[C@H](NC(=O)[C@H](CCCN=C(N)N)NC(=O)[C@H](CCCN=C(N)N)NC(=O)[C@@H]1CCCN1C(=O)[C@@H]1CCCN1C(=O)[C@H](CCCN=C(N)N)NC(=O)[C@H](CCCCN)NC(=O)[C@H](CCCN=C(N)N)NC(=O)[C@@H]1CCCN1C(=O)[C@H](CC(C)C)NC(=O)[C@H](Cc1ccc(O)cc1)NC(=O)[C@H](Cc1cnc[nH]1)NC(=O)[C@H](CCCN=C(N)N)NC(=O)[C@H](CCCCN)NC(=O)[C@H](CC(=O)O)NC(=O)[C@@H](N)C(C)C)C(=O)N[C@@H](Cc1ccc(O)cc1)C(=O)N[C@@H](CC(N)=O)C(=O)N[C@@H](CCCN=C(N)N)C(N)=O [VDKRHYLPRKRPPRRIYNR]

MIC (Escherichia coli JW0013): 0.685 µM (≈ 1.7 µg/mL)
SMILES: CC[C@H](C)[C@H](NC(=O)[C@H](CCCN=C(N)N)NC(=O)[C@H](CCCN=C(N)N)NC(=O)[C@@H]1CCCN1C(=O)[C@@H]1CCCN1C(=O)[C@H](CCCN=C(N)N)NC(=O)[C@H](CCCCN)NC(=O)[C@H](CCCN=C(N)N)NC(=O)[C@@H]1CCCN1C(=O)[C@H](CC(C)C)NC(=O)[C@H](Cc1ccc(O)cc1)NC(=O)[C@@H]1CCCN1C(=O)[C@H](CCCN=C(N)N)NC(=O)[C@H](CCCCN)NC(=O)[C@H](CC(=O)O)NC(=O)[C@@H](N)C(C)C)C(=O)N[C@@H](Cc1ccc(O)cc1)C(=O)N[C@@H](CC(N)=O)C(=O)N[C@@H](CCCN=C(N)N)C(N)=O [VDKRPYLPRKRPPRRIYNR]

MIC (Escherichia coli JW0013): 1.37 µM (≈ 3.3 µg/mL)
SMILES: CC[C@H](C)[C@H](NC(=O)[C@H](CCCN=C(N)N)NC(=O)[C@H](CCCN=C(N)N)NC(=O)[C@@H]1CCCN1C(=O)[C@@H]1CCCN1C(=O)[C@H](CCCN=C(N)N)NC(=O)[C@@H]1CCCN1C(=O)[C@H](CCCN=C(N)N)NC(=O)[C@@H]1CCCN1C(=O)[C@H](CC(C)C)NC(=O)[C@H](Cc1ccc(O)cc1)NC(=O)[C@@H]1CCCN1C(=O)[C@@H]1CCCN1C(=O)[C@H](CCCCN)NC(=O)[C@H](CCCCN)NC(=O)[C@@H](N)C(C)C)C(=O)N[C@@H](Cc1ccc(O)cc1)C(=O)N[C@@H](CC(N)=O)C(=O)N[C@@H](CCCN=C(N)N)C(N)=O [VKKPPYLPRPRPPRRIYNR]
